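Values below derive from 48-hour exposures of cells grown in 96-well plates, with endpoints linearly interpolated between the two concentrations bracketing the appropriate inhibition level. TGI: concentration producing complete growth inhibition.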
Assays:
Experiment in all cases: inhibition of tumour cell growth, NCI panel, 48 h
786-0 renal = tested on: 786-0 renal
A498 renal = tested on: A498 renal
A549 NSCLC = tested on: A549 NSCLC
ACHN renal = tested on: ACHN renal
BT-549 breast = tested on: BT-549 breast
CAKI-1 renal = tested on: CAKI-1 renal
CCRF-CEM leukemia = tested on: CCRF-CEM leukemia
COLO 205 colon = tested on: COLO 205 colon
DU-145 prostate = tested on: DU-145 prostate
EKVX NSCLC = tested on: EKVX NSCLC
HCC-2998 colon = tested on: HCC-2998 colon
HCT-116 colon = tested on: HCT-116 colon
HCT-15 colon = tested on: HCT-15 colon
HOP-62 NSCLC = tested on: HOP-62 NSCLC
HOP-92 NSCLC = tested on: HOP-92 NSCLC
HS 578T breast = tested on: HS 578T breast
HT29 colon = tested on: HT29 colon
IGROV1 ovarian = tested on: IGROV1 ovarian
K-562 leukemia = tested on: K-562 leukemia
LOX IMVI melanoma = tested on: LOX IMVI melanoma
MCF7 breast = tested on: MCF7 breast
MDA-MB-231 breast = tested on: MDA-MB-231 breast
MDA-MB-435 = tested on: MDA-MB-435
MDA-N = tested on: MDA-N
MOLT-4 leukemia = tested on: MOLT-4 leukemia
NCI-H226 lung = tested on: NCI-H226 lung
NCI-H23 lung = tested on: NCI-H23 lung
NCI-H460 lung = tested on: NCI-H460 lung
NCI/ADR-RES ovarian = tested on: NCI/ADR-RES ovarian
OVCAR-3 ovarian = tested on: OVCAR-3 ovarian
OVCAR-4 ovarian = tested on: OVCAR-4 ovarian
OVCAR-5 ovarian = tested on: OVCAR-5 ovarian
OVCAR-8 ovarian = tested on: OVCAR-8 ovarian
PC-3 prostate = tested on: PC-3 prostate
RPMI-8226 leukemia = tested on: RPMI-8226 leukemia
RXF 393 renal = tested on: RXF 393 renal
SF-268 CNS = tested on: SF-268 CNS
SF-295 CNS = tested on: SF-295 CNS
SF-539 CNS = tested on: SF-539 CNS
SK-MEL-2 melanoma = tested on: SK-MEL-2 melanoma
SK-MEL-28 melanoma = tested on: SK-MEL-28 melanoma
SK-MEL-5 melanoma = tested on: SK-MEL-5 melanoma
SK-OV-3 ovarian = tested on: SK-OV-3 ovarian
SN12C renal = tested on: SN12C renal
SNB-19 CNS = tested on: SNB-19 CNS
SNB-75 CNS = tested on: SNB-75 CNS
SR leukemia = tested on: SR leukemia
SW-620 colon = tested on: SW-620 colon
TK-10 renal = tested on: TK-10 renal
U251 CNS = tested on: U251 CNS
UACC-257 melanoma = tested on: UACC-257 melanoma
UACC-62 melanoma = tested on: UACC-62 melanoma
UO-31 renal = tested on: UO-31 renal
HL-60(TB) leukemia = tested on: HL-60(TB) leukemia
KM12 colon = tested on: KM12 colon
M14 melanoma = tested on: M14 melanoma
MALME-3M melanoma = tested on: MALME-3M melanoma
NCI-H522 lung = tested on: NCI-H522 lung

Work on `CC(=O)NCCc1c(-c2[nH]c3ccccc3c2CCNC(C)=O)[nH]c2ccccc12` yielded a TGI (786-0 renal) of over 100 µM, a TGI (A498 renal) of over 100 µM and a TGI (A549 NSCLC) of over 100 µM. For the same compound, the TGI (ACHN renal) was over 100 µM, the TGI (BT-549 breast) was over 100 µM and the TGI (CAKI-1 renal) was over 100 µM. It also gave a TGI (CCRF-CEM leukemia) of over 100 µM, a TGI (COLO 205 colon) of over 100 µM and a TGI (DU-145 prostate) of over 100 µM. For the same compound, the TGI (EKVX NSCLC) was over 100 µM, the TGI (HCC-2998 colon) was over 100 µM and the TGI (HCT-116 colon) was over 100 µM. The TGI (HCT-15 colon) was over 100 µM, the TGI (HOP-62 NSCLC) was over 100 µM and the TGI (HOP-92 NSCLC) was over 100 µM. It also gave a TGI (HS 578T breast) of over 100 µM, a TGI (HT29 colon) of over 100 µM and a TGI (IGROV1 ovarian) of over 100 µM. It also gave a TGI (K-562 leukemia) of over 100 µM, a TGI (LOX IMVI melanoma) of over 100 µM and a TGI (MCF7 breast) of over 100 µM. For the same compound, the TGI (MDA-MB-231 breast) was over 100 µM, the TGI (MDA-MB-435) was over 100 µM and the TGI (MDA-N) was over 100 µM. It also gave a TGI (MOLT-4 leukemia) of over 100 µM, a TGI (NCI-H226 lung) of over 100 µM and a TGI (NCI-H23 lung) of over 100 µM. For the same compound, the TGI (NCI-H460 lung) was over 100 µM, the TGI (NCI/ADR-RES ovarian) was over 100 µM and the TGI (OVCAR-3 ovarian) was over 100 µM. It also gave a TGI (OVCAR-4 ovarian) of over 100 µM, a TGI (OVCAR-5 ovarian) of over 100 µM and a TGI (OVCAR-8 ovarian) of over 100 µM. The TGI (PC-3 prostate) was over 100 µM, the TGI (RPMI-8226 leukemia) was over 100 µM and the TGI (RXF 393 renal) was over 100 µM. For the same compound, the TGI (SF-268 CNS) was over 100 µM, the TGI (SF-295 CNS) was over 100 µM and the TGI (SF-539 CNS) was over 100 µM. The TGI (SK-MEL-2 melanoma) was over 100 µM, the TGI (SK-MEL-28 melanoma) was over 100 µM and the TGI (SK-MEL-5 melanoma) was over 100 µM. It also gave a TGI (SK-OV-3 ovarian) of over 100 µM, a TGI (SN12C renal) of over 100 µM and a TGI (SNB-19 CNS) of over 100 µM. For the same compound, the TGI (SNB-75 CNS) was over 100 µM, the TGI (SR leukemia) was over 100 µM and the TGI (SW-620 colon) was over 100 µM. It also gave a TGI (TK-10 renal) of over 100 µM, a TGI (U251 CNS) of over 100 µM and a TGI (UACC-257 melanoma) of over 100 µM. For the same compound, the TGI (UACC-62 melanoma) was over 100 µM and the TGI (UO-31 renal) was over 100 µM.
`CC12OC1(C)C1C(=O)OCC1C2=O` (stereo not given) showed a TGI (786-0 renal) of over 100 µM, a TGI (A498 renal) of over 100 µM and a TGI (A549 NSCLC) of over 100 µM. The TGI (ACHN renal) was over 100 µM, the TGI (BT-549 breast) was over 100 µM and the TGI (CAKI-1 renal) was 71.5 µM. It also gave a TGI (CCRF-CEM leukemia) of 36 µM, a TGI (COLO 205 colon) of over 100 µM and a TGI (DU-145 prostate) of over 100 µM. The TGI (HCC-2998 colon) was over 100 µM, the TGI (HCT-116 colon) was over 100 µM and the TGI (HCT-15 colon) was over 100 µM. It also gave a TGI (HL-60(TB) leukemia) of 54.3 µM, a TGI (HOP-62 NSCLC) of over 100 µM and a TGI (HOP-92 NSCLC) of over 100 µM. For the same compound, the TGI (HS 578T breast) was 94.1 µM, the TGI (HT29 colon) was over 100 µM and the TGI (IGROV1 ovarian) was over 100 µM. It also gave a TGI (K-562 leukemia) of 72.4 µM, a TGI (KM12 colon) of over 100 µM and a TGI (LOX IMVI melanoma) of over 100 µM. The TGI (M14 melanoma) was over 100 µM, the TGI (MALME-3M melanoma) was 69.7 µM and the TGI (MCF7 breast) was over 100 µM. It also gave a TGI (MDA-MB-231 breast) of over 100 µM, a TGI (MDA-MB-435) of over 100 µM and a TGI (MDA-N) of over 100 µM. For the same compound, the TGI (NCI-H226 lung) was over 100 µM, the TGI (NCI-H23 lung) was over 100 µM and the TGI (NCI-H460 lung) was over 100 µM. The TGI (NCI-H522 lung) was 27.9 µM, the TGI (NCI/ADR-RES ovarian) was over 100 µM and the TGI (OVCAR-3 ovarian) was over 100 µM. For the same compound, the TGI (OVCAR-4 ovarian) was over 100 µM, the TGI (OVCAR-5 ovarian) was over 100 µM and the TGI (OVCAR-8 ovarian) was over 100 µM. It also gave a TGI (PC-3 prostate) of over 100 µM, a TGI (RPMI-8226 leukemia) of over 100 µM and a TGI (RXF 393 renal) of 84.6 µM. The TGI (SF-268 CNS) was over 100 µM, the TGI (SF-295 CNS) was over 100 µM and the TGI (SF-539 CNS) was over 100 µM. The TGI (SK-MEL-2 melanoma) was over 100 µM, the TGI (SK-MEL-28 melanoma) was over 100 µM and the TGI (SK-MEL-5 melanoma) was over 100 µM. For the same compound, the TGI (SK-OV-3 ovarian) was over 100 µM, the TGI (SN12C renal) was 55.4 µM and the TGI (SNB-19 CNS) was over 100 µM. For the same compound, the TGI (SNB-75 CNS) was over 100 µM, the TGI (SR leukemia) was 69.2 µM and the TGI (SW-620 colon) was over 100 µM. The TGI (TK-10 renal) was over 100 µM, the TGI (U251 CNS) was over 100 µM and the TGI (UACC-257 melanoma) was over 100 µM. It also gave a TGI (UACC-62 melanoma) of over 100 µM and a TGI (UO-31 renal) of over 100 µM.
Compound `CC(=O)O[C@H]1CC2C(C3CCC(C(C)CCC(=O)O)[C@]31C)[C@H](OC(C)=O)C[C@@H]1CC3(CC[C@]21C)OOC1(CC[C@]2(C)C4C[C@H](OC(C)=O)[C@]5(C)C(C(C)CCC(=O)O)CCC5C4[C@H](OC(C)=O)C[C@@H]2C1)OO3` (stereo not given in full) has a TGI (786-0 renal) of 9.32 µM, a TGI (A549 NSCLC) of 5.19 µM and a TGI (ACHN renal) of 3.44 µM. It also gave a TGI (BT-549 breast) of 4.11 µM, a TGI (CAKI-1 renal) of 5.15 µM and a TGI (CCRF-CEM leukemia) of 9.87 µM. The TGI (COLO 205 colon) was 4.24 µM, the TGI (DU-145 prostate) was 4.48 µM and the TGI (EKVX NSCLC) was 9.67 µM. It also gave a TGI (HCC-2998 colon) of 3.8 µM, a TGI (HCT-116 colon) of 3.85 µM and a TGI (HCT-15 colon) of 6.39 µM. It also gave a TGI (HL-60(TB) leukemia) of 3.65 µM, a TGI (HOP-62 NSCLC) of 3.97 µM and a TGI (HS 578T breast) of 4.1 µM. The TGI (HT29 colon) was over 100 µM, the TGI (IGROV1 ovarian) was 4.25 µM and the TGI (K-562 leukemia) was over 100 µM. It also gave a TGI (KM12 colon) of 3.17 µM, a TGI (LOX IMVI melanoma) of 3.11 µM and a TGI (M14 melanoma) of 8.31 µM. The TGI (MALME-3M melanoma) was 3.13 µM, the TGI (MCF7 breast) was 12.3 µM and the TGI (MDA-MB-231 breast) was 3.85 µM. It also gave a TGI (MDA-MB-435) of 4.31 µM, a TGI (MDA-N) of 5.91 µM and a TGI (MOLT-4 leukemia) of 13.1 µM. For the same compound, the TGI (NCI-H226 lung) was 4.21 µM, the TGI (NCI-H23 lung) was 4.08 µM and the TGI (NCI-H522 lung) was 3.03 µM. For the same compound, the TGI (NCI/ADR-RES ovarian) was 26.7 µM, the TGI (OVCAR-3 ovarian) was 3.53 µM and the TGI (OVCAR-4 ovarian) was 9.84 µM. For the same compound, the TGI (OVCAR-5 ovarian) was 3.5 µM, the TGI (OVCAR-8 ovarian) was 4.97 µM and the TGI (PC-3 prostate) was 3.85 µM. It also gave a TGI (RPMI-8226 leukemia) of 14.7 µM, a TGI (SF-268 CNS) of 4.01 µM and a TGI (SF-295 CNS) of 4.72 µM. The TGI (SK-MEL-2 melanoma) was 3.64 µM, the TGI (SK-MEL-28 melanoma) was over 100 µM and the TGI (SK-MEL-5 melanoma) was 3.11 µM. For the same compound, the TGI (SK-OV-3 ovarian) was 11.6 µM, the TGI (SN12C renal) was 6.02 µM and the TGI (SNB-19 CNS) was over 100 µM. For the same compound, the TGI (SR leukemia) was 9.55 µM, the TGI (SW-620 colon) was over 100 µM and the TGI (TK-10 renal) was 6.8 µM. For the same compound, the TGI (U251 CNS) was 2.59 µM, the TGI (UACC-257 melanoma) was 4.68 µM and the TGI (UO-31 renal) was 3.32 µM.
